Source: patent EP4201483A1, “LPL1 DERIVED IMMUNE ENHANCING PEPTIDES” (Eberhard-Karls-Universität Tübingen, priority 2021, dated 2023)
Where no end group is shown, it is not given here.

Columns and labels:
[1] = test system: peripheral blood mononuclear cells (PBMCs); experiment: Cytokine production by stimulated peripheral blood mononuclear cells (LegendPlex-Kits); format: cell-based; details: PBMCs from different donors; MDP 20 µg/ml, others 6 and 30 µg/ml
Method: (§1) The figures show: • Figure 1: Extent of sequence homology of the nine Lpl proteins encoded by the lpl operon in S. aureus USA300. […] LSP, leader signal peptide. Total length without LSP is 267 aa. We have chosen Lpli as a prototype of Lpl proteins for further studies. • Figure 2: L13 and L15 inhibit S. aureus internalization by HaCaT cells and N/TERT1 cells. N/TERT-1 are immortalized human keratinocytes. L15 was used at 20 µM), L13 at 30 µM and geldanamycin at 5 µM. SNC1 is representative for the many peptides that had no effect • Figure 3: Alignment of Lpl protein homologs. (A) Multiple sequence alignment of Lpls generated by using SnapGene software. Amino acids that match the Lpli sequence are highlighted in yellow. […] A therapeutic model (treatment at intervals post-infection) is already envisaged in the course of this project. • Figure 5: Quantification of the secreted cytokine IL-23 after stimulation of peripheral blood mononuclear cells of different donors with various cell wall components of Staphylococcus aureus. […] The measured IL-23 concentrations are depicted in pg/ml ± standard error of mean (SEM). • Figure 6: Prediction of Lpli structure and localization of L15 (top row, binding area indicated by white arrows) and L13 (bottom row, binding area indicated by white arrows) in Lpli. […]

[2] = test system: Hsp90; details: upon Hsp90 inhibition (Taiyab & Rao Ch, 2011); cited from earlier work
[3] = in vitro; format: cell-based; details: human; 24h and 48h of exposure; MTT and resazurin; MM6, HEK293, HaCaT, HeLa, HT-29; read-out: cytotoxicity (viability), concentration
Method: (§2) Cytotoxicity assays were conducted on 5 different mammalian cell lines after 24h and 48h of exposure to the various compounds, using the colorimetric tetrazolium dye MTT and the fluorometric resazurin (Alamar Blue): MM6 (human cell line with characteristics of mature monocytes), HEK293 (human embryonic kidney cells), HaCaT (human keratinocyte cell line), HeLa (human cervical cancer cell line) and HT-29 (human colon cancer cell line).

[4] = test system: MM6, HEK293, HaCaT, HeLa and HT-29; experiment: Cytotoxicity assays (MTT and resazurin/Alamar Blue) on 5 mammalian cell lines; format: cell-based, human; details: 24h and 48h of exposure
Method: as §2

[5] = Solubility remark; format: physicochemical; details: compared with L15; reason why only L15 was used in mice
[6] = test system: S. aureus; experiment: Septic arthritis mouse model (mouse sepsis model); format: in vivo; details: mice treated with L15
Method: as §1

Compound: CC(=O)N[C@H]1C(O)O[C@H](CO)[C@@H](O)[C@@H]1O[C@H](C)C(=O)N[C@@H](C)C(=O)N[C@H](CCC(=O)O)C(N)=O (mixture of isomers) [Muramyl Dipeptide (MDP), Muramyl Dipeptide]
- levels of TNF, IL-1β, IL-6 or IL-10 induced [1]: high levels

Compound: C=CCNC1=C2C[C@@H](C)C[C@H](OC)[C@H](O)[C@@H](C)/C=C(\C)[C@H](OC(N)=O)[C@@H](OC)/C=C\C=C(/C)C(=O)NC(=CC1=O)C2=O [Peptide 17AAG, 17AAG]
- F-actin formation [2]: decreased

Compound: COC1=C2C[C@@H](C)C[C@H](OC)[C@H](O)[C@@H](C)/C=C(\C)[C@H](OC(N)=O)[C@@H](OC)/C=C\C=C(/C)C(=O)NC(=CC1=O)C2=O [geldanamycin]
- MCC [3]: ≤ 10 µM

Compound: GHYFVTTFY [Peptide L13, GHYFVTTFY]
- cytotoxicity (viability), concentration [4]: > 100 µM
- solubility [5]: less soluble

Compound: TAKGHYFVTTFYRNG [Peptide L15, TAKGHYFVTTFYRNG]
- cytotoxicity (viability), concentration [4]: > 100 µM
- behaviour of treated mice (side observation) [6]: hyperactive
